The target of one test is HDAC-1 (Homo sapiens, UniProt Q13547). Briefly: Inhibition of histone deacetylase enzymatic (HDAC-1) activity, Boc-Lys(Ac)-AMC fluorescence assay. The test is classed as biochemical. Here is the method: Inhibition of Histone Deacetylase Enzymatic (HDAC-1) Activity
(§1) The following protocol is used to assay the compounds of the invention. In the assay, the buffer used is 25 mM HEPES, pH 8.0, 137 mM NaCl, 2.7 mM KCl, 1 mM MgCl2 and the substrate is Boc-Lys(Ac)-AMC in a 50 mM stock solution in DMSO. The enzyme stock solution is 4.08 μg/mL in buffer.
(§2) The compounds are pre-incubated (2 μl in DMSO diluted to 13 μl in buffer for transfer to assay plate) with enzyme (20 μl of 4.08 μg/ml) for 10 minutes at room temperature (35 μl pre-incubation volume). The mixture is pre-incubated for 5 minutes at room temperature. The reaction is started by bringing the temperature to 37° C. and adding 15 μl substrate. Total reaction volume is 50 μl. The reaction is stopped after 20 minutes by addition of 50 μl developer, prepared as directed by Biomol (Fluor-de-Lys developer, Cat. # KI-105). A plate is incubated in the dark for 10 minutes at room temperature before reading (λEx=360 nm, λEm=470 nm, Cutoff filter at 435 nm). Similar assays are performed to measure HDAC-2 inhibitory activity

For the next test, the target named is HDAC-2 (Homo sapiens, UniProt Q92769). Briefly: Similar assay measuring HDAC-2 inhibitory activity. The class given is biochemical. On the procedure:
as §1, §2

Another test has as its system HCT116 cells. Kind of test: MTT assay on HCT116 cells. The test is classed as cell-based. Conditions: 72 hours incubation, concentration reducing cell numbers to 50% of solvent treated cells. On the procedure: (§3) HCT116 cells (2000/well) are plated into 96-well tissue culture plates one day before compound treatment. Representative compounds at various concentrations were added to the cells. The cells are incubated for 72 hours at 37° C. in 5% CO2 incubator. MTT (3-[4,5-dimethylthiazol-2-yl]-2,5 diphenyl tetrazolium bromide, Sigma) is added at a final concentration of 0.5 mg/ml and incubated with the cells for 4 hours before one volume of solubilization buffer (50% N,N-dimethylformamide, 20% SDS, pH 4.7) is added onto the cultured cells. After overnight incubation, solubilized dye is quantified by calorimetric reading at 570 nM using a reference at 630 nM. OD values are converted to cell numbers according to a standard growth curve of the relevant cell line. The concentration which reduces cell numbers to 50% of that of solvent treated cells is determined as MTT IC50. A similar assay is performed on HMEC cells.
In general terms: Formazan colour is commonly taken as a measure of viable cells.

A further test relates to HMEC cells. Kind of test: MTT assay on HMEC cells. The class given is cell-based. Conditions: similar MTT assay on HMEC cells. Here is the method: as §3

Sequence of HDAC-2 (Q92769 whole entry): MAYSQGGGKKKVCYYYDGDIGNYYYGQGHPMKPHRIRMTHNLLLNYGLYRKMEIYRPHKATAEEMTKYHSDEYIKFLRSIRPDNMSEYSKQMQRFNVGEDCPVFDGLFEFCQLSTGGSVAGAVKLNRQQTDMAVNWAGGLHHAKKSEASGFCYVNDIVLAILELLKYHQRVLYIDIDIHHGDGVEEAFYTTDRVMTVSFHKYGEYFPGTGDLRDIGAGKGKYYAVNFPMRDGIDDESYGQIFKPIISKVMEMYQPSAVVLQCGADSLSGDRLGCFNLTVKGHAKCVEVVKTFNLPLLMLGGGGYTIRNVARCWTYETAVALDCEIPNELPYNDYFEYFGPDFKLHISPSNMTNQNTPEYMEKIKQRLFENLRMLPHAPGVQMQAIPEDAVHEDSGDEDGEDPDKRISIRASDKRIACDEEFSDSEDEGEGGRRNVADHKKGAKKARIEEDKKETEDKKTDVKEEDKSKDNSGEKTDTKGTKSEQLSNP
Sequence of HDAC-1 (Q13547 whole entry): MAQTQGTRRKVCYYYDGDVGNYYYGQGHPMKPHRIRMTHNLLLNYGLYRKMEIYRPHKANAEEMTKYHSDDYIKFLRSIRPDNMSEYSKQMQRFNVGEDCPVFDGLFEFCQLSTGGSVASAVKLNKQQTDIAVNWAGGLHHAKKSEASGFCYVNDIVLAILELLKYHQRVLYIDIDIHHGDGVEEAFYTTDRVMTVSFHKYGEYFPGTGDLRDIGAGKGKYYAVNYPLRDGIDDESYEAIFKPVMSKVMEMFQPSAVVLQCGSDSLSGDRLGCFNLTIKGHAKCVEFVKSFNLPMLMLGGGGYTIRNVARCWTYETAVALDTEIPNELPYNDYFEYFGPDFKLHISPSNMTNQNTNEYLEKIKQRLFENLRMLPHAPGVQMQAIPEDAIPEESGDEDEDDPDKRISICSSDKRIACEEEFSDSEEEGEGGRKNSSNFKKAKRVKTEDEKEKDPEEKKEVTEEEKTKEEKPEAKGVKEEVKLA

For the molecule `CN(C)CCOC(=O)N[C@H]1CCN(c2ccc(C(=O)Nc3ccccc3N)cc2)C1` [Compound 119, (S)-2-(Dimethylamino)ethyl-1-(4-(2-aminophenylcarbamoyl) -phenyl)pyrrolidin-3-ylcarbamate], the IC50 against HDAC-1 was at most 500 nM; at HDAC-2 it was at most 500 nM; with HCT116 cells (Homo sapiens, HCT-116), at most 1000 nM; with HMEC cells (Homo sapiens) it was over 50000 nM.

In the case of `COC(=O)N[C@H]1CCN(c2ccc(C(=O)Nc3ccccc3N)cc2)C1` [Compound 120, (S)-Methyl 1-(4-(2-aminophenylcarbamoyl)phenyl)pyrrolidin-3-yl carbamate], the IC50 is at most 500 nM on HDAC-1, at most 500 nM at HDAC-2 and over 50000 nM in the test on HMEC cells (Homo sapiens).

Consider `CCOC(=O)N[C@H]1CCN(c2ccc(C(=O)Nc3ccccc3N)cc2)C1` [Compound 121, (S)-Ethyl 1-(4-(2-aminophenylcarbamoyl)phenyl)pyrrolidin-3-yl carbamate], for which the IC50 against HDAC-1 was at most 500 nM; at HDAC-2 it was at most 500 nM; in the test with HCT116 cells, at most 1000 nM; in the test with HMEC cells, at most 50000 nM.

`CC(C)(C)OC(=O)N[C@H]1CCN(c2ccc(C(=O)Nc3ccccc3N)cc2)C1` [Compound 122, (S)-tert-Butyl 1-(4-(2-aminophenylcarbamoyl)phenyl)pyrrolidin-3-yl carbamate]: the IC50 on HDAC-1 was at most 500 nM; against HDAC-2, at most 500 nM; in the test with HCT116 cells (Homo sapiens, HCT-116), at most 1000 nM; in the test with HMEC cells (Homo sapiens) it was at most 50000 nM.

On to `CC(C)COC(=O)N[C@H]1CCN(c2ccc(C(=O)Nc3ccccc3N)cc2)C1` [Compound 123, (S)-Isobutyl 1-(4-(2-aminophenylcarbamoyl)phenyl)pyrrolidin-3-yl carbamate], for which the IC50 against HDAC-1 is at most 500 nM; at HDAC-2, at most 5000 nM; in the test with HCT116 cells (Homo sapiens, HCT-116) it was at most 500 nM; in the test with HMEC cells (Homo sapiens), at most 50000 nM.

As for `Nc1ccccc1NC(=O)c1ccc(N2CC[C@H](NC(=O)OCc3ccccc3)C2)cc1` [Compound 124, (S)-Benzyl 1-(4-(2-aminophenylcarbamoyl)phenyl)pyrrolidin-3-yl carbamate], the IC50 on HDAC-1 was at most 500 nM; against HDAC-2, at most 100 nM; with HMEC cells (Homo sapiens), at most 5000 nM.

Consider `Nc1ccccc1NC(=O)c1ccc(N2CC[C@H](NC(=O)N3CCOCC3)C2)cc1` [Compound 126, (S)-N-(1-(4-(2-Aminophenylcarbamoyl)phenyl)pyrrolidin-3-yl)morpholine-4-carboxamide], for which the IC50 against HDAC-1 is at most 500 nM; against HDAC-2 it was at most 1000 nM; in the test on HCT116 cells (Homo sapiens, HCT-116), at most 1000 nM; in the test with HMEC cells (Homo sapiens), over 50000 nM.

On to `Nc1ccccc1NC(=O)c1ccc(N2CC[C@H](NC(=O)OCc3cccnc3)C2)cc1` [Compound 127, ((S)-Pyridin-3-ylmethyl-1-(4-(2-aminophenylcarbamoyl)phenyl)pyrrolidin-3-yl carbamate], for which the IC50 at HDAC-1 is at most 1000 nM; on HDAC-2 it was at most 5000 nM; with HCT116 cells (Homo sapiens, HCT-116), at most 5000 nM; in the test with HMEC cells (Homo sapiens), over 50000 nM.

For the molecule `Nc1ccccc1NC(=O)c1ccc(N2CC[C@H](NC(=O)NCc3cccnc3)C2)cc1` [Compound 128, (S)-N-(2-Aminophenyl)-4-(3-(3-(pyridin-3-ylmethyl)ureido)pyrrolidin-1-yl)benzamide], the IC50 was at most 5000 nM on HDAC-1; at most 1000 nM on HDAC-2; at most 5000 nM in the test on HCT116 cells (Homo sapiens, HCT-116); at most 50000 nM in the test with HMEC cells (Homo sapiens).

As for `COCCOC(=O)N[C@H]1CCN(c2ccc(C(=O)Nc3ccccc3N)cc2)C1` [Compound 129, (S)-2-Methoxyethyl-1-(4-(2-aminophenylcarbamoyl)phenyl)pyrrolidin-3-yl carbamate], the IC50 in the test on HCT116 cells was at most 1000 nM; in the test with HMEC cells, at most 50000 nM.

As to `COCCOC(=O)N[C@@H]1CCN(c2ccc(C(=O)Nc3ccccc3N)cc2)C1` [Compound 130], the 50% inhibitory concentration (IC50) against HDAC-1 is at most 5000 nM; on HDAC-2, at most 5000 nM; with HCT116 cells (Homo sapiens, HCT-116) it was at most 5000 nM.

As to `Nc1ccccc1NC(=O)c1ccc(N2CC[C@H](NC(=S)NCc3cccnc3)C2)cc1` [Compound 131, (S)-N-(2-Aminophenyl)-4-(3-(3-(pyridin-3-ylmethyl)thioureido)pyrrolidin-1-yl)benzamide], the half-inhibitory concentration (IC50) is at most 500 nM at HDAC-1; at most 5000 nM against HDAC-2; at most 1000 nM with HCT116 cells (Homo sapiens, HCT-116).

On to `COC(=S)N[C@H]1CCN(c2ccc(C(=O)Nc3ccccc3N)cc2)C1` [Compound 135, (S)-O-Methyl 1-(4-(2-aminophenylcarbamoyl)phenyl)pyrrolidin-3-ylcarbamothioate], for which the 50% inhibitory concentration (IC50) at HDAC-1 was at most 100 nM; on HDAC-2 it was at most 500 nM; in the test on HCT116 cells (Homo sapiens, HCT-116) it was at most 500 nM; in the test with HMEC cells (Homo sapiens), at most 10000 nM.

`Nc1ccccc1NC(=O)c1ccc(N2CC[C@H](NC(=O)OCC(F)(F)F)C2)cc1` [Compound 140, (S)-2,2,2-Trifluoroethyl 1-(4-(2-aminophenylcarbamoyl)phenyl) -pyrrolidin-3-ylcarbamate]: the IC50 at HDAC-1 was at most 500 nM; against HDAC-2, at most 500 nM; in the test on HCT116 cells (Homo sapiens, HCT-116) it was at most 1000 nM; in the test on HMEC cells (Homo sapiens), at most 10000 nM.

For the molecule `CN(C)CCCOC(=O)N[C@H]1CCN(c2ccc(C(=O)Nc3ccccc3N)cc2)C1` [Compound 144, (S)-3-(Dimethylamino)propyl 1-(4-(2-aminophenylcarbamoyl)phenyl)pyrrolidin-3-yl carbamate], the values for the 50% inhibitory concentration (IC50) against HDAC-1, against HDAC-2 and in the test on HCT116 cells were at most 500 nM, at most 500 nM and at most 1000 nM, respectively.

As to `CN1CC[C@@H](OC(=O)N[C@H]2CCN(c3ccc(C(=O)Nc4ccccc4N)cc3)C2)C1` [Compound 146, (R)-1-Methylpyrrolidin-3-yl (S)-1-(4-(2-aminophenylcarbamoyl)phenyl)pyrrolidin-3-yl carbamate], the 50% inhibitory concentration (IC50) at HDAC-1 was at most 500 nM; against HDAC-2, at most 500 nM; in the test with HCT116 cells (Homo sapiens, HCT-116), at most 5000 nM.

As to `COCCOC(=O)N[C@H]1CCN(c2ncc(C(=O)Nc3ccccc3N)cn2)C1` [Compound 151, (S)-2-Methoxyethyl 1-(5-(2-aminophenylcarbamoyl)pyrimidin-2-yl)pyrrolidin-3-ylcarbamate], the IC50 on HDAC-1 was at most 1000 nM; with HCT116 cells (Homo sapiens, HCT-116) it was at most 50000 nM.

Regarding `COCCOC(=O)N[C@H]1CCN(c2ccc(C(=O)Nc3ccccc3N)cn2)C1` [Compound 154, (S)-2-Methoxyethyl 1-(5-(2-aminophenylcarbamoyl)pyridin-2-yl)pyrrolidin-3-ylcarbamate], the concentration for half-maximal inhibition (IC50) was at most 500 nM against HDAC-1; at most 5000 nM on HDAC-2; at most 5000 nM with HCT116 cells (Homo sapiens, HCT-116).

`CC(=O)O[C@H]1CCN(c2ccc(C(=O)Nc3ccccc3N)cc2)C1` [Compound 159, (S)-1-(4-(2-Aminophenylcarbamoyl)phenyl)pyrrolidin-3-yl acetate]: the IC50 on HDAC-1 was at most 500 nM; against HDAC-2, at most 1000 nM.

Take `Nc1ccccc1NC(=O)c1ccc(N2CC[C@H](O)C2)cc1` [Compound 160, (S)-N-(2-Aminophenyl)-4-(3-hydroxypyrrolidin-1-yl)benzamide]: the half-maximal inhibitory concentration (IC50) at HDAC-1 and against HDAC-2 was at most 1000 nM in each case.

Regarding `CN(C)[C@H]1CCN(c2ccc(C(=O)Nc3ccccc3N)cc2)C1` [Compound 165, (S)-N-(2-Aminophenyl)-4-(3-(dimethylamino)pyrrolidin-1-yl)benzamide], the IC50 is at most 1000 nM against HDAC-1 and at most 5000 nM at HDAC-2.

In the case of `Nc1ccccc1NC(=O)c1ccc(N2CC[C@H](NC(=O)OCCN3CCOCC3)C2)cc1` [Compound 195, (S)-2-morpholinoethyl 1-(4-(2-aminophenylcarbamoyl)-phenyl)pyrrolidin-3-ylcarbamate], the IC50 is at most 500 nM on HDAC-1; at most 1000 nM on HDAC-2; at most 5000 nM in the test with HCT116 cells (Homo sapiens, HCT-116).

`COC(=O)N(Cc1cccnc1)[C@H]1CCN(c2ccc(C(=O)Nc3ccccc3N)cc2)C1` [Compound 196, (S)-methyl 1-(4-(2-aminophenylcarbamoyl)phenyl)-pyrrolidin-3-yl(pyridin-3-ylmethyl)carbamate]: the half-maximal inhibitory concentration (IC50) is at most 500 nM against HDAC-1; at most 500 nM against HDAC-2; at most 5000 nM with HCT116 cells (Homo sapiens, HCT-116).

As to `Nc1ccccc1NC(=O)c1ccc(N2CC[C@H](NC(=O)OCC3c4ccccc4-c4ccccc43)C2)cc1` [Compound 201, (S)-(9H-fluoren-9-y)methyl 1-(4-(2-aminophenylcarbamoyl)-phenyl)pyrrolidin-3-ylcarbamate], the IC50 on HDAC-1 is at most 100 nM; against HDAC-2, at most 500 nM.

For “(S)-Methyl 1-(5-(2-aminophenyl carbamoyl)pyrimidin-2-yl) pyrrolidin-3-yl carbamate [Compound 152]”, the values for the IC50 against HDAC-1 and in the test with HCT116 cells were at most 1000 nM and at most 10000 nM, respectively.

The term IC50 denotes the concentration needed to halve the response being measured. A higher IC50 goes with lower potency.

Source of the values: patent publication US8030344B2, “Inhibitors of histone deacetylase” (MethylGene Inc., priority 2007, dated 2011).
